Source: patent US20140315889A1, “HYDROXAMATE DERIVATIVES FOR HDAC INHIBITOR, AND THE PHARMACEUTICAL COMPOSITION COMPRISING THEREOF” (CHONG KUN DANG PHARMACEUTICAL CORP., priority 2011, published 2014)

Tests used:
[1] = molecular target: T1, Human recombinant HDAC1 (Homo sapiens, UniProt Q13547); test: HDAC enzyme activity test, HDAC1; format: biochemical; details: Table 12; read-out: Inhibition ability (IC50) HDAC1
T1 construct: purchased Enzo Life Science Co. (named for the kit; assigned to the enzyme from the BML- catalogue prefix) BML-SE456
T1 sequence (Q13547 whole entry): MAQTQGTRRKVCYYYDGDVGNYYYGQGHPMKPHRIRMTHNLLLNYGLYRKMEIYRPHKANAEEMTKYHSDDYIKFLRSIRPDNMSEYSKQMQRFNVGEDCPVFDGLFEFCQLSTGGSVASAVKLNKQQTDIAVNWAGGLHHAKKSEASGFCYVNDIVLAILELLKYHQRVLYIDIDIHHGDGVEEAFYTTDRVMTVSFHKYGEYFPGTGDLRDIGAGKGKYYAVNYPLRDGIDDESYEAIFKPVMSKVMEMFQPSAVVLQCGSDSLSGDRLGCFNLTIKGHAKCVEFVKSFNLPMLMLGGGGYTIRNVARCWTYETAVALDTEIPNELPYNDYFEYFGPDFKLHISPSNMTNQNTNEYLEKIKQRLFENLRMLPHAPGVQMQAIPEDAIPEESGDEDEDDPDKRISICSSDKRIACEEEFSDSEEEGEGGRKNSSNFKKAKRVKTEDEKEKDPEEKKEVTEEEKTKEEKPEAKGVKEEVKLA
Method: (§1) Then, 0.3 μg of enzyme and 10 μM of substrate per well were added, reacted at 30° C. for 60 minutes. Thereto, Fluor de Lys® Developer II (BML-KI176) was added and reacted for 30 minutes. […] From the data, the respective IC50 were calculated by GraphPad Prism 4.0 program.

[2] = molecular target: T2, human recombinant HDAC6 (Homo sapiens, UniProt Q9UBN7); test: HDAC enzyme activity test, HDAC6; format: biochemical; details: Table 12; for Selectivity for HDAC6, HD1/HD6: ratio HDAC1 IC50 / HDAC6 IC50; for IC50: read-out: Inhibition ability (IC50) HDAC6
T2 construct: purchased Calibiochem Co. (so in the source) 382180
T2 sequence (Q9UBN7 1-1215): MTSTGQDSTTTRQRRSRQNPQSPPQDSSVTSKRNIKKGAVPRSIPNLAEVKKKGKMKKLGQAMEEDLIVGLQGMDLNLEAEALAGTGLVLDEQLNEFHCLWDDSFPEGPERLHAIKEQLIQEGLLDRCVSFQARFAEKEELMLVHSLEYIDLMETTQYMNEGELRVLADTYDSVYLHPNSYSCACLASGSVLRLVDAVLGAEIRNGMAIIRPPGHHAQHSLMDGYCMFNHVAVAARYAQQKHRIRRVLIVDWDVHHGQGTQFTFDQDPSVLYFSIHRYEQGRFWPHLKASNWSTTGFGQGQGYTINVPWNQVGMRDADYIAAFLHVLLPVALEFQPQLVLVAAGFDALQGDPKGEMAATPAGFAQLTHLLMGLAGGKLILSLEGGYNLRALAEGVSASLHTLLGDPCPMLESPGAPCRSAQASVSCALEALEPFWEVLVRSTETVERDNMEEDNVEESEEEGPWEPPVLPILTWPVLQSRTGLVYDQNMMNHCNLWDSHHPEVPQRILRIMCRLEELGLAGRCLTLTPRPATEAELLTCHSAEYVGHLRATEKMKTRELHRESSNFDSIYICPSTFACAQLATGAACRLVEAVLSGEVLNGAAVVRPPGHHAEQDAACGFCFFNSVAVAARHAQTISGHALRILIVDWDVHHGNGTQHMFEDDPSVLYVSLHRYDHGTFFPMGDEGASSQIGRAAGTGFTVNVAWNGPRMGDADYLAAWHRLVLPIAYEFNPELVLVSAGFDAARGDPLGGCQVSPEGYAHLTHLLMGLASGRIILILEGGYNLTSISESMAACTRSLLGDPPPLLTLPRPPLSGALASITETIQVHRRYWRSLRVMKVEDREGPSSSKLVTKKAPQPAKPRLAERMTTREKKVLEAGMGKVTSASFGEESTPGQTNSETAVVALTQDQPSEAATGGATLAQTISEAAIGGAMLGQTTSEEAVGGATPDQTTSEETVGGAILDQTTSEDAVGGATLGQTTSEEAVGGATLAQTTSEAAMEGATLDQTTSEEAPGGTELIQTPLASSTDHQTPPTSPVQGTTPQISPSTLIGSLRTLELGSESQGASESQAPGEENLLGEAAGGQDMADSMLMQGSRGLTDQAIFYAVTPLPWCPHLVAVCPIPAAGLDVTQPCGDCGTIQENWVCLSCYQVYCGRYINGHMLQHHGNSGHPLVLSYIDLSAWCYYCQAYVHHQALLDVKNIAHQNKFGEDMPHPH
Method: as §1

| SMILES | IC50 [1] [nM] | Selectivity for HDAC6, HD1/HD6 [2] | IC50 [2] [nM] |
| --- | --- | --- | --- |
| O=C(NO)c1ccc(Cn2c3c(c4ccccc42)C(=O)C(CN2CCN(C(=O)C4CC4)CC2)CC3)cc1 (stereo not drawn) [Compound 156, 4-((3-((4-(cyclopropancarbonyl)piperazin-1-yl)methyl)-4-oxo-1,2,3,4-tetrahydrocarbazol-9-yl)methyl)-N-hydroxybenzamide] | 6400 | 424.8 | 15.1 |
| O=C(NO)c1ccc(Cn2c3c(c4cc(F)ccc42)C(=O)CCC3)cc1 [Compound 157, 4-((3-fluoro-5-oxo-5,6,7,8-tetrahydrocarbazol-9-yl)methyl)-N-hydroxybenzamide] | 3610 | 326.2 | 11.1 |
| Cc1nccn1CC1CCc2c(c3cc(F)ccc3n2Cc2ccc(C(=O)NO)cc2)C1=O (stereo not drawn) [Compound 158, 4-((6-fluoro-3-((2-methyl-1H-imidazol-1-yl)methyl)-4-oxo-1,2,3,4-tetrahydrocarbazol-9-yl)methyl)-N-hydroxybenzamide] | 5140 | 602.7 | 8.52 |
| O=C(NO)c1ccc(Cn2c3ccccc3c3c(=O)[nH]cnc32)cc1 [Compound 179, N-hydroxy-4-((4-oxo-3,4-dihydropyrimido[4,5-b]indol-9-yl)methyl)benzamide] | 154 | 43.693 | 3.52 |
| CC(C)N1CCN(CC2CCc3c(c4cc(F)ccc4n3Cc3ccc(C(=O)NO)cc3)C2=O)CC1 (stereo not drawn) [Compound 188, 4-((6-fluoro-3-((4-isopropylpiperazin-1-yl)methyl)-4-oxo-1,2,3,4-tetrahydrocarbazol-9-yl)methyl)-N-hydroxybenzamide] | 2260 | 49.9 | 45.3 |
| CCN1CCN(CC2CCc3c(c4cc(F)ccc4n3Cc3ccc(C(=O)NO)cc3)C2=O)CC1 (stereo not drawn) [Compound 189, 4-((3-((4-ethylpiperazin-1-yl)methyl)-6-fluoro-4-oxo-1,2,3,4-tetrahydrocarbazol-9-yl)methyl)-N-hydroxybenzamide] | 2230 | 193.5 | 11.5 |
| CCCCN1CCN(CC2CCc3c(c4cc(F)ccc4n3Cc3ccc(C(=O)NO)cc3)C2=O)CC1 (stereo not drawn) [Compound 190, 4-((3-((4-butylpiperazin-1-yl)methyl)-6-fluoro-4-oxo-1,2,3,4-tetrahydrocarbazol-9-yl)methyl)-N-hydroxybenzamide] | 2250 | 385.1 | 5.8 |
| CC(C)(O)CN1CCN(CC2CCc3c(c4cc(F)ccc4n3Cc3ccc(C(=O)NO)cc3)C2=O)CC1 (stereo not drawn) [Compound 191, 4-((6-fluoro-3-((4-(2-hydroxy-2-methylpropyl)piperazin-1-yl)methyl)-4-oxo-1,2,3,4-tetrahydrocarbazol-9-yl)methyl)-N-hydroxybenzamide] | 8280 | 1115.6 | 7.4 |
| Cc1nccn1CC1C(=O)c2c(n(Cc3ccc(C(=O)NO)cc3)c3ccc(F)cc23)CC1(C)C (stereo not drawn) [Compound 192, 4-((6-fluoro-2,2-dimethyl-3-((2-methyl-1H-imidazol-1-yl)methyl)-4-oxo-1,2,3,4-tetrahydrocarbazol-9-yl)methyl)-N-hydroxybenzamide] | 4610 | 2546.4 | 1.8 |
| O=C(CCCCCn1c2c(c3ccccc31)C(=O)C(CN1CCOCC1)CC2)NO (stereo not drawn) [Compound 193, N-hydroxy-6-(3-(morpholinomethyl)-4-oxo-1,2,3,4-tetrahydrocarbazol-9-yl)hexanamide] | 3500 | 464.3 | 7.5 |
| Cc1nccn1CC1CCc2c(c3ccccc3n2CCCCCC(=O)NO)C1=O (stereo not drawn) [Compound 194, N-hydroxy-6-(3-((2-methyl-1H-imidazol-1-yl)methyl)-4-oxo-1,2,3,4-tetrahydrocarbazol-9-yl)hexanamide] | 3080 | 131.3 | 23.5 |
| O=C(CCCCCn1c2c(c3ccccc31)C(=O)C(CN1CCC(F)(F)C1)CC2)NO (stereo not drawn) [Compound 204, 6-(3-((3,3-difluoropyrrolidin-1-yl)methyl)-4-oxo-1,2,3,4-tetrahydrocarbazol-9-yl)-N-hydroxyhexanamide] | 1950 | 40 | 48.7 |
| CN1CCN(CC2CCc3c(c4ccccc4n3CCCCCC(=O)NO)C2=O)CC1 (stereo not drawn) [Compound 205, N-hydroxy-6-(3-((4-methylpiperazin-1-yl)methyl)-4-oxo-1,2,3,4-tetrahydrocarbazol-9-yl)hexanamide] | 3170 | 69 | 46 |
| CCN1CCN(CC2CCc3c(c4ccccc4n3CCCCCC(=O)NO)C2=O)CC1 (stereo not drawn) [Compound 206, 6-(3-((4-ethylpiperazin-1-yl)methyl)-4-oxo-1,2,3,4-tetrahydrocarbazol-9-yl)-N-hydroxyhexanamide] | 1200 | 43.5 | 27.5 |
| CC1(C)Cc2c(c3cc(F)ccc3n2Cc2ccc(C(=O)NO)cc2)C(=O)C1CN1CCOCC1 (stereo not drawn) [Compound 207, 4-((6-fluoro-2,2-dimethyl-3-(morpholinomethyl)-4-oxo-1,2,3,4-tetrahydrocarbazol-9-yl)methyl)-N-hydroxybenzamide] | 1820 | 41.5 | 43.9 |
| CCCCN1CCN(CC2CCc3c(c4ccccc4n3CCCCCC(=O)NO)C2=O)CC1 (stereo not drawn) [Compound 208, 6-(3-((4-butylpiperazin-1-yl)methyl)-4-oxo-1,2,3,4-tetrahydrocarbazol-9-yl)-N-hydroxyhexanamide] | 284 | 152.8 | 1.9 |
| CN1CCN(CC2C(=O)c3c(n(Cc4ccc(C(=O)NO)cc4)c4ccc(F)cc34)CC2(C)C)CC1 (stereo not drawn) [Compound 209, 4-((6-fluoro-2,2-dimethyl-3-((4-methylpiperazin-1-yl)methyl)-4-oxo-1,2,3,4-tetrahydrocarbazol-9-yl)methyl)-N-hydroxybenzamide] | 365 | 148.8 | 2.5 |
| Cc1c2c(n(Cc3ccc(C(=O)NO)cc3)c1C)CCCC2=O [Compound 220, 4-((2,3-dimethyl-4-oxo-4,5,6,7-tetrahydroindol-1-yl)methyl)-N-hydroxybenzamide] | 2820 | 643.1 | 4.39 |
| O=C(NO)c1ccc(Cn2c3c(c4ccccc42)C(=O)NCC3)cc1 [Compound 228, N-hydroxy-4-((1-oxo-1,2,3,4-tetrahydropyrido[4,3-b]indol-5-yl)methyl)benzamide] | 3530 | 208.3 | 16.9 |
| Cc1cn(Cc2ccc(C(=O)NO)cc2)c2c1C(=O)NCC2 [Compound 232, N-hydroxy-4-((3-methyl-4-oxo-4,5,6,7-tetrahydropyrrolo[3,2-c]pyridin-1-yl)methyl)benzamide] | 4840 | 107.4 | 45 |
| Cc1c2c(n(CCCCCC(=O)NO)c1C)CCCC2=O [Compound 235, 6-(2,3-dimethyl-4-oxo-4,5,6,7-tetrahydroindol-1-yl)-N-hydroxyhexanamide] | 1310 | 34.9 | 37.5 |
| Cc1c2c(n(Cc3ccc(C(=O)NO)cc3)c1C)CC(C)(C)CC2=O [Compound 236, N-hydroxy-4-((2,3,6,6-tetramethyl-4-oxo-4,5,6,7-tetrahydro-1H-indol-1-yl)methyl)benzamide] | 5110 | 479.4 | 10.7 |
| Cc1cn(Cc2ccc(C(=O)NO)cc2)c2c1C(=O)N(CCN1CCOCC1)CC2 [Compound 250, N-hydroxy-4-((3-methyl-5-(2-morpholinoethyl)-4-oxo-4,5,6,7-tetrahydropyrrolo[3,2-c]pyridin-1-yl)methyl)benzamide] | 2720 | 20.5 | 133 |
